The values that follow are results of earlier work, collected in patent US20240075184A1, “BIODEGRADABLE IMPLANTS WITH ANTICORROSIVE COATINGS” (University of Georgia Research Foundation, Inc., priority 2021, published 2024).

Where two headings read alike, the source gives them in different places.

The conditions of series [1]: 0.4 M in corrosion solution, Mg alloy AZ31.
The conditions of series [2]: 0.4 M in corrosion solution, high-purity Mg.

Consider `O=C1C=C(O)C(=O)c2ccccc21` [Lawsone, 2-hydroxy-1,4-napthoquinone], for which the inhibition efficiency in series [1] was 90%; in series [2], 97%.
